Laboratory results as given in patent US20030072710A1, “Individualization of therapy with antidepressants” (McGill University, priority 2001, published 2003).
Read-outs that look alike come from different tables or passages of the source. Marks after values point to notes of the source that are not given here.

Key:
1X-Ab = assay: Competitive antigen ELISA, cross-reactivity of 1X-Ab; assay type: binding, rabbit; settings: for % Cross-Reaction 1X-Ab: competitive antigen ELISA, 0 = absence of inhibition or inhibition no higher than 40% at highest concentration tested (5×10^−3 M)
Experimental: (§1) Buffers and water without additives are filtered through millipore filters and kept for 1 week. BSA, antibodies, Tween™ 20 and horse radish peroxidase conjugates are added to these buffers and water just prior to use. Urine samples are usually collected 4 hours after drinking a cup of coffee (instant or brewed with approximately 100 mg of caffeine per cup) and stored at −80° C. The urine samples are diluted 10 times with sodium phosphate buffer (620 mosm, pH 7.50) and are subsequently diluted with water to give concentrations of AAMU and 1X no higher than 3×10^−6 M in the ELISA. All the pipettings are done with an eight-channel pipette, except those of the antibody and sample solutions. Starting with the last well, 100 μL of a carbonate buffer (100 mM, pH 9.6) containing 2.5 μg mL-1 antibodies are added to each well. After 90 min. at room temperature, the wells are washed three times with […] of TPB: isotonic sodium phosphate buffer (310 mosm, pH 7.50) containing 0.05% Tween™ 20.
(§2) After the initial wash, unoccupied sites are blocked by incubation for 90 min. at room temperature with 100 μL TBP containing 3% BSA. The wells are washed four times with 100 μL TPB. […] The microplate is gently shaken with an orbital shaker at room temperature for 3-4 hours. The wells are washed three times with 100 μL TPB containing 1% BSA and three times with water containing 0.05% Tween™ 20. To the washed plate is added 150 μL of a substrate buffer composed of citric acid (25 mM) and sodium phosphate dibasic buffer (50 mM, pH 5.0) containing 0.06% hydrogen peroxide and 0.04% o-phenylenediamine hydrochloride.
(§3) Buffers and water without additives were filtered through millipore filters and kept for 1 week. BSA, antibodies, Tween™ 20 and horse radish peroxidase conjugates were added to these buffers and water just prior to use. Urine samples were usually collected 4 hours after drinking a cup of coffee (instant or brewed with approximately 100 mg of caffeine per cup) and stored at −80° C. They were diluted 10 times with sodium phosphate buffer (620 mosm, pH 7.50) and were subsequently diluted with water to give concentrations of AAMU and 1X no higher than 3×10^−6 M in the ELISA. All the pipettings were done with an eight-channel pipette, except those of the antibody and sample solutions. Starting with the last well, 100 μL of a carbonate buffer (100 mM, pH 9.6) containing 2.5 μg mL-1 antibodies was pipetted. After 90 min. at room temperature, the wells were washed three times with 100 μL of TPB: isotonic sodium phosphate buffer (310 mosm, pH 7.50) containing 0.05% Tween™ 20.
(§4) After the initial wash, unoccupied sites were blocked by incubation for 90 min. at room temperature with 100 μL TBP containing 3% BSA. The wells were washed four times with 100 μL TPB. […] The microplate was gently shaken with an orbital shaker at room temperature for 3-4 hours. The wells were washed three times with 100 μL with TPB containing 1% BSA and three times with water containing 0.05% Tween™ 20. To the washed plate was added 150 μL of a substrate buffer composed of citric acid (25 mM) and sodium phosphate dibasic buffer (50 mM, pH 5.0) containing 0.06% hydrogen peroxide and 0.04% o-phenylenediamine hydrochloride. After 20 min. at room temperature with shaking, the reaction was stopped with 50 μL of 2.5 N HCl.
(§5) The cross reactivities of AAMU-Ab and 1X-Ab were tested using a wide variety of caffeine metabolites and structural analogs (Table 5 below).

AAMU-Ab = assay: Competitive antigen ELISA, cross-reactivity of AAMU-Ab; assay type: binding, rabbit; settings: for % Cross-Reaction AAMU-Ab: competitive antigen ELISA, 0 = absence of inhibition or inhibition no higher than 40% at highest concentration tested (5×10^−3 M)
Experimental: as §1, §2, §3, §4, §5

[1] = cited from earlier work

| IC50 (1X-Ab; read-out: concentration required for 50% inhibition in the competitive antigen ELISA, 1X-Ab) [µM] | IC50 (AAMU-Ab; read-out: concentration required for 50% inhibition in the competitive antigen ELISA, AAMU-Ab) [µM] | SMILES | % Cross-Reaction 1X-Ab (1X-Ab) [%] | % Cross-Reaction AAMU-Ab (AAMU-Ab) | adverse reactions to dapsone ([1]; fast acetylators) [%] | adverse reactions to dapsone ([1]; slow acetylators) [%] |
| --- | --- | --- | --- | --- | --- | --- |
|  |  | Cn1c(=O)c2c(ncn2C)n(C)c1=O [1,3,7-Trimethyl Xanthine (Caffeine), 1,3,7-Trimethyl Xanthine] | 0 | 0% |  |  |
|  |  | Cn1c(=O)c2[nH]cnc2n(C)c1=O [1,3-Dimethyl Xanthine (Theophylline), 1,3-Dimethyl Xanthine] | 0.2 | 0% |  |  |
|  |  | Cn1c(=O)[nH]c2ncn(C)c2c1=O [1,7-Dimethyl Xanthine (Paraxanthine), 1,7-Dimethyl Xanthine] | 0.5 | 0% |  |  |
|  |  | Cn1c(=O)[nH]c2[nH]c(=O)n(C)c2c1=O [1,7-Dimethyluric acid] | 0 | 0% |  |  |
| 10 |  | Cn1c(=O)[nH]c2nc[nH]c2c1=O [1-Methyl Xanthine (1X), 1-Methyl Xanthine] | 100 | 0% |  |  |
|  |  | Cn1c(=O)[nH]c2[nH]c(=O)[nH]c2c1=O [1-Methyluric acid] | 11 | 0% |  |  |
|  |  | Cn1cnc2c1c(=O)[nH]c(=O)n2C [3,7-Dimethyl Xanthine (Theobromine), 3,7-Dimethyl Xanthine] | 0 | 0% |  |  |
|  |  | Cn1c(=O)[nH]c(=O)c2[nH]cnc21 [3-Methyl Xanthine] | 0 | 0% |  |  |
|  |  | CC(=O)Nc1c(N)n(C)c(=O)n(C)c1=O [5-Acetamino-6-amino-1,3-dimethyluracil] | 0 | 0% |  |  |
|  | 1.5 | CC(=O)Nc1c(N)n(C)c(=O)[nH]c1=O [5-Acetamino-6-amino-1-methyluracil] | 0 | 100% |  |  |
|  |  | CC(=O)Nc1c(N)[nH]c(=O)[nH]c1=O [5-Acetamino-6-amino-uracil] | 0 | 0.6% |  |  |
|  |  | Cn1cnc2[nH]c(=O)[nH]c(=O)c21 [7-Methyl Xanthine] | 0 | 0% |  |  |
|  |  | Cc1nc2[nH]c(=O)[nH]c(=O)c2[nH]1 [8-Methyl Xanthine] | 0 | 0% |  |  |
|  |  | Nc1nc2nc[nH]c2c(=O)[nH]1 [Guanine] | 0 | 0% |  |  |
|  |  | O=c1[nH]cnc2nc[nH]c12 [Hypoxanthine] | 0 | 0% |  |  |
|  |  | O=c1cc[nH]c(=O)[nH]1 [Uracil] | 0 | 0% |  |  |
|  |  | O=c1[nH]c(=O)c2[nH]c(=O)[nH]c2[nH]1 [Uric acid] | 0 | 0% |  |  |
|  |  | O=c1[nH]c(=O)c2[nH]cnc2[nH]1 [Xanthine] | 0 | 0^a % |  |  |
|  |  | Nc1ccc(S(=O)(=O)c2ccc(N)cc2)cc1 [dapsone] |  |  | 17 | 46 |
